Assay results as given in paper PMC8232644, “Self-Supporting Hydrogels Based on Fmoc-Derivatized Cationic Hexapeptides for Potential Biomedical Applications” (Biomedicines, 2021).
Values after ≈ are worked out from the molar mass of the structure shown. Blank lines part the entries; values can stand above or below the molecule they belong to. Residues, ends and D or L forms follow the SMILES beside them. *: point of attachment. Fmoc = O=C(OCC1c2ccccc2-c2ccccc21)*

How the values were obtained:
[1] = Water solubility of peptides; assay type: physicochemical; conditions: from solid: 10 mg lyophilized peptide in 1.0 mL water, sonicated 30 min at room temperature, centrifuged 5 min 13,000 rpm; UV at 301 nm (ε 7800 M^−1 cm^−1)
Method: Peptide solutions were prepared by dissolving 10 mg of each lyophilized peptide in 1.0 mL of water. These suspensions were sonicated for 30 min at room temperature; after centrifugation (5 min at 13,000 rpm), the concentration was spectroscopically determined on UV–Vis Thermo Fisher Scientific Inc. (Wilmington, DE, USA) NanoDrop 2000 c spectrophotometer equipped with a 1.0 cm quartz cuvette (Hellma). The quantification of the concentration was assessed using the molar absorptivity (ε) of 7800 M^−1 cm^−1 for Fmoc group at λ = 301 nm.
Due to their different sequence, each peptide has a different water solubility (see Table 2). […] The capability of peptides to self-assemble was initially checked by fluorescence spectroscopy, recording the emission spectra at the maximum concentration of the peptide. Peptides containing the FF motif were excited at both 257 and 301 nm, which corresponded to the excitation wavelength of phenyl and the Fmoc group, respectively, whereas peptides lacking FF were excited only at 301 nm. All the peptide derivatives, upon excitation at 301 nm, have an emission peak at 328 nm, red-shifted of 15 nm, with respect to the peak at 313 nm, which is expected for the monomeric form (see Figure S6).

[2] = In vitro hydrogel degradation in Ringer's solution; assay type: physicochemical; conditions: hydrogel with 1.5 mL Ringer’s solution at 37 °C for 20 days (method: 40 days); ΔW = (Wo − Wt)/Wo
Method: In vitro hydrogel degradation assay was performed by adding a fixed amount (1.5 mL) of Ringer’s solution (12.9 mg of NaCl, 0.45 mg of KCl and 0.48 mg of CaCl2) to the preformed hydrogels and by placing them in an oven at 37 °C for 40 days. Hydrogels were weighed before the addition of the Ringer’s solution (Wo) and after its removal (Wt). The weight loss ratio (ΔW) was calculated as percentage according to Equation (2) ΔW = ((Wo − Wt))/Wo %(2)
As potential tissue engineering matrices, PHG materials would be directly exposed to biological fluids. According to this consideration, the degradation test was performed to evaluate the matrices stability in an in vivo mimetic environment. The biological setting was mimed, incubating the hydrogels with Ringer’s solution at 37 °C for 20 days. The stability, reported as ΔW, calculated using Equation (2), was estimated as weight loss. ΔW values determined for Fmoc-K1, Fmoc-K2, and Fmoc-K3 were 43.2, 39.7, and 41.8%, respectively. In comparison to other FmocFF peptide-based hydrogels, all tested samples undergo faster and more remarkable degradation. This behavior is probably ascribable to the less rigid nature of Fmoc-K HGs. As an alternative, it can also be hypothesized that the large amount of salt in the Ringer’s solution could improve the solubility of K peptides and, in turn, accelerate the loss of 3D-organization of the matrix. It is worth it to note that an efficient in vivo degradation by biological fluids of hydrogels in their single components could allow achieving a rapid excretion of the matrix, which means a high biocompatibility.

3T3-L1 cells [3] = assay type: cell-based, mouse; conditions: for Cell adhesion (% of adherent viable cells on seeded cells): 16 h; for cell viability of adherent cells: 72 h
Method: (§1) Aneuploid immortal keratinocyte cell line HaCat and mouse pre-adipocyte cell line 3T3-L1 were obtained from IRCCS-SDN Biobank (10.5334/ojb.26) and grown in Dulbecco’s Modified Medium (DMEM) supplemented with 10% fetal bovine serum (FBS) and 1% GlutaMAX. Cells were incubated at 37 °C and 5% CO2 and seeded in 100 mm culture dishes.
For the adhesion test, 3T3-L1 cells were seeded in 96-well plates at a density of 0.5 ×10^4 cells per well. Before seeding, each well was filled with the indicated hydrogels; 16 h after seeding, cells were stained with Acridine Orange/Propidium Iodide stain. Cell adhesion was reported as % of adherent viable cell (fluorescing green) on total plated cells. Viability upon adhesion was reported as % viable cells and total adherent cells. Duplication rate was reported as the ratio between viable cells upon 48 h from seeding and the number of viable adherent cells upon 16 h from seeding. In order to test the toxicity of hydrogels conditioned media, we used MTS assay, (CellTiter 96® AQueous One Solution Cell Proliferation Assay, Promega, Italy). For MTS assays, HaCat and 3T3-L1 cells were seeded in 96-well plates at a density of 0.7 × 10^4 cells per well. To obtain the conditioned media, hydrogels formed in a hollow plastic chamber sealed at one end with a porous membrane, were incubated with 2 mL of completed DMEM medium for 16 h in sterile condition at RT [23]. No color change of the media was detected following the incubation and the tested pH value (7.5–7.8) was suitable for culturing added to the wells. The conditioned media were used to grow the cells for 24, 48, and 72 h. At the end of the treatment, cell viability was assessed by the MTS assay. In brief, MTS was added to the cells at a final concentration of 0.5 mg/mL. After 30 min of incubation at 37 °C, the samples were analyzed using the VICTOR Nivo (Perkin Elmer, Buckinghamshire, UK) at 490 nm absorbance. Cell survival was expressed as percentage of viable cells in the presence of hydrogels, compared to control cells grown in their absence. MTS assay was repeated twice with similar results.
To test the ability of the three hydrogels to support in vitro growth of eukaryotic cells, we culture 3T3-L1 (mouse fibroblast) cells on Fmoc-K1, K2, and K3. As first, we measured the number of cells able to adhere to hydrogels. An efficient cell adhesion is necessary for an optimal growth of the culture, and growth-supports un-favoring cell adhesion cause cell cycle arrest and induce apoptosis. […] Compared to cells plated in the absence of hydrogels, Fmoc-K1 and Fmoc-K2 disfavored cell adhesion, allowing cell attachment to 20 ± 3%, 36 ± 8% of the seeded cells, respectively.

3T3-L1 cells [4] = assay type: cell-based, mouse; conditions: 24 h
Method: as §1
For the adhesion test, 3T3-L1 cells were seeded in 96-well plates at a density of 0.5 ×10^4 cells per well. Before seeding, each well was filled with the indicated hydrogels; 16 h after seeding, cells were stained with Acridine Orange/Propidium Iodide stain. Cell adhesion was reported as % of adherent viable cell (fluorescing green) on total plated cells. Viability upon adhesion was reported as % viable cells and total adherent cells. […] No color change of the media was detected following the incubation and the tested pH value (7.5–7.8) was suitable for culturing added to the wells. […] At the end of the treatment, cell viability was assessed by the MTS assay. […] After 30 min of incubation at 37 °C, the samples were analyzed using the VICTOR Nivo (Perkin Elmer, Buckinghamshire, UK) at 490 nm absorbance. Cell survival was expressed as percentage of viable cells in the presence of hydrogels, compared to control cells grown in their absence. […]

[5] = cited from earlier work
Source text: Hydrogels are matrices able to absorb water and swell in the media without dissolving. The calculated degree of swelling (q) was 55.2%, 56.6%, and 54.3% for Fmoc-K1, Fmoc-K2, and Fmoc-K3, respectively.

Molecule: CC[C@H](C)[C@H](NC(=O)OCC1c2ccccc2-c2ccccc21)C(=O)N[C@@H](CC(C)C)C(=O)N[C@H](C(=O)N[C@@H](C)C(=O)NCC(=O)N[C@@H](CCCCN)C(N)=O)C(C)C [Fmoc-K1] (Fmoc-ILVAGK-NH2)
solubility thermodynamic at 30 min [1]: 1240 µg/mL (≈ 1510 µM)
weight loss ratio ΔW (stability) [2]: 43.2%
cell death of the attached cells (3T3-L1 cells [3]): 9 ± 3%
Cell adhesion (% of adherent viable cells on seeded cells) (3T3-L1 cells [3]): 20 ± 3%
cell viability of adherent cells (3T3-L1 cells [3]): 92 ± 3%
viability (cell survival vs control) (3T3-L1 cells [4]): above 70%

Molecule: CC[C@H](C)[C@H](NC(=O)[C@H](CC(C)C)NC(=O)OCC1c2ccccc2-c2ccccc21)C(=O)N[C@H](C(=O)N[C@@H](C)C(=O)NCC(=O)N[C@@H](CCCCN)C(N)=O)C(C)C [Fmoc-K2] (Fmoc-LIVAGK-NH2)
solubility thermodynamic at 30 min [1]: 2560 µg/mL (≈ 3120 µM)
weight loss ratio ΔW (stability) [2]: 39.7%
cell death of the attached cells (3T3-L1 cells [3]): 11 ± 2%
Cell adhesion (% of adherent viable cells on seeded cells) (3T3-L1 cells [3]): 36 ± 8%
cell viability of adherent cells (3T3-L1 cells [3]): 95 ± 3%

Molecule: CC[C@H](C)[C@H](NC(=O)[C@H](C)NC(=O)OCC1c2ccccc2-c2ccccc21)C(=O)N[C@H](C(=O)N[C@@H](C)C(=O)NCC(=O)N[C@@H](CCCCN)C(N)=O)C(C)C [Fmoc-K3] (Fmoc-AIVAGK-NH2)
solubility thermodynamic at 30 min [1]: 3210 µg/mL (≈ 4120 µM)
weight loss ratio ΔW (stability) [2]: 41.8%
cell death of the attached cells (3T3-L1 cells [3]): 3 ± 1%
Cell adhesion (% of adherent viable cells on seeded cells) (3T3-L1 cells [3]): 85 ± 12%
cell viability of adherent cells (3T3-L1 cells [3]): 94 ± 3%

solubility thermodynamic at 30 min [1]: 508 µg/mL (≈ 455 µM)
Molecule: CC[C@H](C)[C@H](NC(=O)[C@H](Cc1ccccc1)NC(=O)[C@H](Cc1ccccc1)NC(=O)OCC1c2ccccc2-c2ccccc21)C(=O)N[C@@H](CC(C)C)C(=O)N[C@H](C(=O)N[C@@H](C)C(=O)NCC(=O)N[C@@H](CCCCN)C(N)=O)C(C)C [FmocFF-K1] (Fmoc-FFILVAGK-NH2)

solubility thermodynamic at 30 min [1]: 253 µg/mL (≈ 227 µM)
Molecule: CC[C@H](C)[C@H](NC(=O)[C@H](CC(C)C)NC(=O)[C@H](Cc1ccccc1)NC(=O)[C@H](Cc1ccccc1)NC(=O)OCC1c2ccccc2-c2ccccc21)C(=O)N[C@H](C(=O)N[C@@H](C)C(=O)NCC(=O)N[C@@H](CCCCN)C(N)=O)C(C)C [FmocFF-K2] (Fmoc-FFLIVAGK-NH2)

solubility thermodynamic at 30 min [1]: 345 µg/mL (≈ 321 µM)
Molecule: CC[C@H](C)[C@H](NC(=O)[C@H](C)NC(=O)[C@H](Cc1ccccc1)NC(=O)[C@H](Cc1ccccc1)NC(=O)OCC1c2ccccc2-c2ccccc21)C(=O)N[C@H](C(=O)N[C@@H](C)C(=O)NCC(=O)N[C@@H](CCCCN)C(N)=O)C(C)C [FmocFF-K3] (Fmoc-FFAIVAGK-NH2)

Molecule: Fmoc-diphenylalanine [FmocFF]
swelling degree [5]: around 40%
